Entries after “also recorded” stand apart in the source; their conditions may differ. Like-named read-outs stand apart in the source and are kept apart here.
Columns and labels:
CYP3A4 = molecular target: T1, CYP3A4 (Homo sapiens, UniProt P08684); assay: Addition of CYP inhibitors: metabolism of Compound I; assay type: in vivo; conditions: observed in Phase I clinical trials
T1 construct: from tissue; host or cells: human subjects in vivo (endogenous enzyme)

cytochrome P450 enzyme = cytochrome P450 enzyme (Homo sapiens, UniProt P08684); assay: CYP reaction phenotyping analysis; assay type: in vitro ADME
Chain of cytochrome P450 enzyme (P08684 whole entry): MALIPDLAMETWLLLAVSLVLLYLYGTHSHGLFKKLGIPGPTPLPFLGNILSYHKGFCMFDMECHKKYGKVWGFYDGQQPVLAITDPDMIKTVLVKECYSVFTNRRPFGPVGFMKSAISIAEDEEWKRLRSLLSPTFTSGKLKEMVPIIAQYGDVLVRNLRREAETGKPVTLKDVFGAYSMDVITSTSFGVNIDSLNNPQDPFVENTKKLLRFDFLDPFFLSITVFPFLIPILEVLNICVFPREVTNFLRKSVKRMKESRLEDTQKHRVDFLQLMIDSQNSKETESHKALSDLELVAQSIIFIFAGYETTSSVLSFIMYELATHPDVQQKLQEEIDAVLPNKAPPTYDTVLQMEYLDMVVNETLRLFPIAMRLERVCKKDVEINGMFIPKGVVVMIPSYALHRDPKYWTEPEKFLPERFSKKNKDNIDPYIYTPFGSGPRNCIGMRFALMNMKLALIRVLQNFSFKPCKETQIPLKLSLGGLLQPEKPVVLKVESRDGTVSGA

[1] = Phase 1 Part A: single ascending dose PK of Compound I (75 mg HME tablet) in healthy subjects; assay type: in vivo, human; conditions: for AUC(0-t) / AUC(0-inf) / Cmax / half-life / Vd/F / CL/F / t1/2: geometric mean (CV %); for Vd/F: read-out: Vz/F; for Tmax: median (minimum-maximum)
Method: The 75 mg tablet formulation (described in Table 4) was made using the hot melt extrusion (HME) process described in this disclosure. This 75 mg tablet was used in human clinical studies (single-dose study in healthy volunteers) and (repeat-dose study in cancer patients). […] Following repeat dosing, the steady state exposure at the highest dose evaluated (900 mg BID), AUCt=68700 ng·hr/mL, approached the target efficacious exposure (Table 7).
(§1) A total of 40 adult subjects with a mean age of 37 years were enrolled. Part A enrolled subjects into four single dose cohorts of Compound I ranging from 150 to 900 mg, and the PK data were evaluated to select the most appropriate dose level to use in Part B (900 mg). […] All doses of each drug were administered in the fasted state. This study used an amorphous solid dispersion formulation of Compound I produced with a hot-melt extrusion (HME) process.

[2] = Phase 1 Part B: effect of CYP3A4 inhibitor cobicistat on PK of Compound I (HME) in healthy subjects; assay type: in vivo, human
Method: as §1

[3] = as above; assay type: in vivo, human; remark: listed apart in the source
[4] = human, in vivo, oral, single dose 150 mg, 75 mg HME tablet, fasted, N = 6
[5] = human, in vivo, oral, single dose 300 mg, 75 mg HME tablet, fasted, N = 5
[6] = human, in vivo, oral, single dose 450 mg, 75 mg HME tablet, fasted, N = 6
[7] = human, in vivo, oral, single dose 900 mg, 75 mg HME tablet, fasted, N = 6
[8] = single dose 150 mg, 75 mg HME tablet, fasted, N = 6
[9] = single dose 300 mg, 75 mg HME tablet, fasted, N = 5
[10] = single dose 450 mg, 75 mg HME tablet, fasted, N = 6
[11] = single dose 900 mg, 75 mg HME tablet, fasted, N = 6
[12] = 900 mg level, compared with Compound I administered alone
[13] = human, in vivo, oral, Compound I 900 mg single dose alone, Part B, HME, fasted, N = 10, geometric mean (% CV)
[14] = 300 mg level, compared with Compound I administered alone
[15] = human, in vivo, oral, Compound I 300 mg single dose alone, Part B, HME, fasted, N = 8, geometric mean (% CV)

T1 sequence (P08684 whole entry): as above

Structure (SMILES): Nn1nnc2ccccc21 [ABT]
- effect of added CYP inhibitor on metabolism of Compound I (CYP3A4): blocked the metabolism of Compound I

Structure (SMILES): O=C(c1c(F)ccc(NS(=O)(=O)N2CC[C@@H](F)C2)c1F)c1c[nH]c2ncc(-c3cnc(C4CC4)nc3)cc12 [Compound I, (R)-N-(3-(5-(2-cyclopropylpyrimidin-5-yl)-1H-pyrrolo[2,3-b]pyridine-3-carbonyl)-2,4-difluorophenyl)-3-fluoropyrrolidine-1-sulfonamide]
- main cytochrome P450 enzyme responsible for metabolism (cytochrome P450 enzyme): CYP3A4
- AUC(0-t) ([1]; human, in vivo, oral, 150 mg, single dose 150 mg, 75 mg HME tablet, fasted, N = 6, read-out: AUC0-12): 7.24 µg·h/mL
- AUC(0-t) ([1]; human, in vivo, oral, 150 mg, single dose 150 mg, 75 mg HME tablet, fasted, N = 6, read-out: AUC0-24): 7.72 µg·h/mL
- AUC(0-t) ([1]; human, in vivo, oral, 150 mg, single dose 150 mg, 75 mg HME tablet, fasted, N = 6, read-out: AUC0-t): 7.87 µg·h/mL
- AUC(0-t) ([1]; human, in vivo, oral, 300 mg, single dose 300 mg, 75 mg HME tablet, fasted, N = 5, read-out: AUC0-12): 12.1 µg·h/mL
- AUC(0-t) ([1]; human, in vivo, oral, 300 mg, single dose 300 mg, 75 mg HME tablet, fasted, N = 5, read-out: AUC0-24): 12.6 µg·h/mL
- AUC(0-t) ([1]; human, in vivo, oral, 300 mg, single dose 300 mg, 75 mg HME tablet, fasted, N = 5, read-out: AUC0-t): 12.9 µg·h/mL
- AUC(0-t) ([1]; human, in vivo, oral, 450 mg, single dose 450 mg, 75 mg HME tablet, fasted, N = 6, read-out: AUC0-12): 21 µg·h/mL
- AUC(0-t) ([1]; human, in vivo, oral, 450 mg, single dose 450 mg, 75 mg HME tablet, fasted, N = 6, read-out: AUC0-24): 21.8 µg·h/mL
- AUC(0-t) ([1]; human, in vivo, oral, 450 mg, single dose 450 mg, 75 mg HME tablet, fasted, N = 6, read-out: AUC0-t): 22.1 µg·h/mL
- AUC(0-t) ([1]; human, in vivo, oral, 900 mg, single dose 900 mg, 75 mg HME tablet, fasted, N = 6, read-out: AUC0-12): 37.5 µg·h/mL
- AUC(0-t) ([1]; human, in vivo, oral, 900 mg, single dose 900 mg, 75 mg HME tablet, fasted, N = 6, read-out: AUC0-24): 39.2 µg·h/mL
- AUC(0-t) ([1]; human, in vivo, oral, 900 mg, single dose 900 mg, 75 mg HME tablet, fasted, N = 6, read-out: AUC0-t): 40 µg·h/mL
- AUC(0-inf) [1, 4]: 7.61 µg·h/mL
- Cmax [1, 4]: 2.07 µg/mL
- half-life [1, 4]: 8.18 h
- Vd/F [1, 4]: 233 L
- Tmax ([1]; human, in vivo, oral, single dose 150 mg, 75 mg HME tablet, fasted, N = 6, read-out: tmax): 2 h
- AUC(0-inf) [1, 5]: 13.2 µg·h/mL
- Cmax [1, 5]: 4.18 µg/mL
- half-life [1, 5]: 9.56 h
- Vd/F [1, 5]: 313 L
- Tmax ([1]; human, in vivo, oral, single dose 300 mg, 75 mg HME tablet, fasted, N = 5, read-out: tmax): 2 h
- AUC(0-inf) [1, 6]: 22.4 µg·h/mL
- Cmax [1, 6]: 7.5 µg/mL
- half-life [1, 6]: 8.36 h
- Vd/F [1, 6]: 243 L
- Tmax ([1]; human, in vivo, oral, single dose 450 mg, 75 mg HME tablet, fasted, N = 6, read-out: tmax): 1 h
- AUC(0-inf) [1, 7]: 40.4 µg·h/mL
- Cmax [1, 7]: 13.3 µg/mL
- half-life [1, 7]: 9.12 h
- Vd/F [1, 7]: 293 L
- Tmax ([1]; human, in vivo, oral, single dose 900 mg, 75 mg HME tablet, fasted, N = 6, read-out: tmax): 1 h
- PK linearity ([1]; single ascending doses under fasted conditions): linear PK
- CL/F [1, 8]: 19.7 (46.9) L/hr
- t1/2 [1, 8]: 8.18 h
- CL/F [1, 9]: 22.7 (56.5) L/hr
- t1/2 [1, 9]: 9.56 h
- Tmax [1, 9]: 2.0 (1.0-2.0) hr
- CL/F [1, 10]: 20.1 (62.5) L/hr
- t1/2 [1, 10]: 8.36 h
- Tmax [1, 10]: 1.0 (1.0-2.0) hr
- CL/F [1, 11]: 22.3 (55.8) L/hr
- t1/2 [1, 11]: 9.12 h
- Tmax [1, 11]: 1.0 (1.0-2.0) hr
- exposure (Cmax and AUC) versus dose ([1]; single dose 150 to 900 mg, 75 mg HME tablet, fasted): dose-proportional increase in exposure; also recorded: Exposure increased dose proportionally
- increase of mean AUC0-t and AUC0-∞ with cobicistat co-administration [2, 12]: 3.8 fold
- increase of mean Cmax with cobicistat co-administration [2, 12]: 2.7 fold
- AUC(0-t) ([2]; human, in vivo, oral, 900 mg, Compound I 900 mg single dose alone, Part B, HME, fasted, N = 10, geometric mean (% CV)): 34.8 µg·h/mL
- AUC(0-inf) [2, 13]: 35.2 µg·h/mL
- Cmax [2, 13]: 11.4 µg/mL
- half-life [2, 13]: 8.94 h
- Tmax ([2]; human, in vivo, oral, Compound I 900 mg single dose alone, Part B, HME, fasted, N = 10, median (minimum-maximum)): 2 h
- increase of mean AUC0-t and AUC0-∞ with cobicistat co-administration [3, 14]: 2.6 fold
- increase of mean Cmax with cobicistat co-administration [3, 14]: 1.8 fold
- AUC(0-t) ([3]; human, in vivo, oral, 300 mg, Compound I 300 mg single dose alone, Part B, HME, fasted, N = 8, geometric mean (% CV), read-out: AUC0-24): 15.8 µg·h/mL
- AUC(0-t) ([3]; human, in vivo, oral, 300 mg, Compound I 300 mg single dose alone, Part B, HME, fasted, N = 8, geometric mean (% CV), read-out: AUC0-t): 16.2 µg·h/mL
- AUC(0-t) ([3]; human, in vivo, oral, 900 mg, Compound I 900 mg single dose alone, Part B, HME, fasted, N = 10, geometric mean (% CV), read-out: AUC0-24): 34.1 µg·h/mL
- AUC(0-inf) [3, 15]: 16.4 µg·h/mL
- Cmax [3, 15]: 4.84 µg/mL
- half-life [3, 15]: 9.96 h
- Tmax ([3]; human, in vivo, oral, Compound I 300 mg single dose alone, Part B, HME, fasted, N = 8, median (minimum-maximum)): 2 h
